Experiments:
Experiment in all cases: KINOMEscan competition binding
Conditions in all cases: compound 10.0 µM
[1] = molecular target: STK32C (human) (UniProt Q86UX6)
[2] = molecular target: MAP4K3 (human) (UniProt Q8IVH8)
[3] = molecular target: MAP2K2 (human) (UniProt P36507)
[4] = molecular target: MAP3K10 (human) (UniProt Q02779)
[5] = molecular target: PRKD2 (human) (UniProt Q9BZL6)
[6] = molecular target: RPS6KA1 KD2 (human) (UniProt Q15418)
[7] = molecular target: DDR2 (human) (UniProt Q16832)
[8] = molecular target: ERBB2 (human) (UniProt P04626)
[9] = molecular target: EGFR (human) (UniProt P00533)
[10] = molecular target: MAPK1 (human) (UniProt P28482)
[11] = molecular target: EPHB3 (human) (UniProt P54753)
[12] = molecular target: JAK1 JH2 pseudokinase (human) (UniProt P23458)
[13] = molecular target: FGFR4 (human) (UniProt P22455)
[14] = molecular target: JAK2 JH1 catalytic (human) (UniProt O60674)
[15] = molecular target: CDC2L2 (human) (UniProt Q9UQ88)
[16] = molecular target: DAPK2 (human) (UniProt Q9UIK4)
[17] = molecular target: ERBB4 (human) (UniProt Q15303)
[18] = molecular target: EPHB2 (human) (UniProt P29323)
[19] = molecular target: CDK5 (human) (UniProt Q00535)
[20] = molecular target: AURKB (human) (UniProt Q96GD4)
[21] = molecular target: PRKD3 (human) (UniProt O94806)
[22] = molecular target: MELK (human) (UniProt Q14680)
[23] = molecular target: CDK19 (human) (UniProt Q9BWU1)
[24] = molecular target: RPS6KA6 KD2 (human) (UniProt Q9UK32)
[25] = molecular target: NEK9 (human) (UniProt Q8TD19)
[26] = molecular target: MET (human) (UniProt P08581)
[27] = molecular target: DCLK3 (human) (UniProt Q9C098)
[28] = molecular target: MAP3K9 (human) (UniProt P80192)
[29] = molecular target: FLT4 (human) (UniProt P35916)
[30] = molecular target: PLK2 (human) (UniProt Q9NYY3)
[31] = molecular target: SRPK3 (human) (UniProt Q9UPE1)
[32] = molecular target: MAK (human) (UniProt P20794)
[33] = molecular target: PIK3C2G (human) (UniProt O75747)
[34] = molecular target: MAP3K13 (human) (UniProt O43283)
[35] = system: PIK3CA (human), P42336 [H1047L]
[36] = molecular target: RIPK4 (human) (UniProt P57078)

Measured: kinase still bound, per cent of control

Sequence of JAK2 JH1 catalytic (human) (O60674 whole entry, looked up): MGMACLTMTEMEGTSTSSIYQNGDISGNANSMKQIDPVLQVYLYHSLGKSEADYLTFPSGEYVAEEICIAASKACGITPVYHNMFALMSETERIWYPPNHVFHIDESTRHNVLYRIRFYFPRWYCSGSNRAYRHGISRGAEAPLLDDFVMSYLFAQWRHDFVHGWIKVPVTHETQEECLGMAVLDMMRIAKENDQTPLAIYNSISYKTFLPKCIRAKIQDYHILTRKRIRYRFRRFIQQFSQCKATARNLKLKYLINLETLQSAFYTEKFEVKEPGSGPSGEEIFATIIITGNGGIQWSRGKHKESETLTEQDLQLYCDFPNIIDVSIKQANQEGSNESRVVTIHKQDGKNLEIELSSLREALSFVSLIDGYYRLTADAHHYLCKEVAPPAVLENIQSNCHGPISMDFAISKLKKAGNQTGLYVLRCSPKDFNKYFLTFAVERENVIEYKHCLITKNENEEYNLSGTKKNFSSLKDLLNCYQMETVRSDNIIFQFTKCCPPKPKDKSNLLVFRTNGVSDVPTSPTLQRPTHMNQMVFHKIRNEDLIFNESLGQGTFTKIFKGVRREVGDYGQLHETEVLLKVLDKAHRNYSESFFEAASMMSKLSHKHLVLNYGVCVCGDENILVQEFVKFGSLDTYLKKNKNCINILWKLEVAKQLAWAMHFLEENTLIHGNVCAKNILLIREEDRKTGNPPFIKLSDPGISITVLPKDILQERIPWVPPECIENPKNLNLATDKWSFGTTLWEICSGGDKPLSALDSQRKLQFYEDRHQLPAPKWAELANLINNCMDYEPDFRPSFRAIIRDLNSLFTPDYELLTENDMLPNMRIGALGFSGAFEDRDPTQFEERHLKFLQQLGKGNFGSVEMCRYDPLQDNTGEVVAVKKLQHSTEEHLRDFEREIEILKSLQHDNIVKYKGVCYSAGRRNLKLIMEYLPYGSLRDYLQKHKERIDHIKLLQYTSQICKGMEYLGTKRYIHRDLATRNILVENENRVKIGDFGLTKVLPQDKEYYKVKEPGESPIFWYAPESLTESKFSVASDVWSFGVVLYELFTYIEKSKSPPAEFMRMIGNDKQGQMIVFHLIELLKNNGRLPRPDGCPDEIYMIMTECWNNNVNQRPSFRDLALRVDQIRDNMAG
Sequence of MAP4K3 (human) (Q8IVH8 whole entry, looked up): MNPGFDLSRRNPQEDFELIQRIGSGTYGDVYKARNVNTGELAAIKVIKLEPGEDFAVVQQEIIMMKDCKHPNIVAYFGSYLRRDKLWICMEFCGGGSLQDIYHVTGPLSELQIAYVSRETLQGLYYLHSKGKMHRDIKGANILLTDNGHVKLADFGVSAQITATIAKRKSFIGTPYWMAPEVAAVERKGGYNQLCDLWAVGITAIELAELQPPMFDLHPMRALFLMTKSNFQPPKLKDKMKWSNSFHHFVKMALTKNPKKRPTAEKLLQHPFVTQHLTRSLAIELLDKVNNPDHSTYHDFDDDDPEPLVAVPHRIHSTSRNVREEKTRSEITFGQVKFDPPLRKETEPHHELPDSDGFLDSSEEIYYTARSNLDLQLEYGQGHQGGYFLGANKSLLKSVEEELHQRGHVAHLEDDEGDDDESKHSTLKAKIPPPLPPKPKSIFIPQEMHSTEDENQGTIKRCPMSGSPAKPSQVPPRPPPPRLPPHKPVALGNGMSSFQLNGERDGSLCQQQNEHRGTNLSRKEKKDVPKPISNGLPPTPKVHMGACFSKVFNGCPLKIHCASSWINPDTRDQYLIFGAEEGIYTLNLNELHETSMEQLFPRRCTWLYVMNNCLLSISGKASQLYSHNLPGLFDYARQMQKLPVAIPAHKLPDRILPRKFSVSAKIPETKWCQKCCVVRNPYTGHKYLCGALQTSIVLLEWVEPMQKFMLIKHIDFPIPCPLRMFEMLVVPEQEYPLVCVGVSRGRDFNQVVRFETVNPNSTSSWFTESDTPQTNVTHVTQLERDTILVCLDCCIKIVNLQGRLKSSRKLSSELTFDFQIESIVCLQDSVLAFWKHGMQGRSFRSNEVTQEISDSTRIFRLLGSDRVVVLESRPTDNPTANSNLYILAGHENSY
Sequence of CDK5 (human) (Q00535 whole entry, looked up): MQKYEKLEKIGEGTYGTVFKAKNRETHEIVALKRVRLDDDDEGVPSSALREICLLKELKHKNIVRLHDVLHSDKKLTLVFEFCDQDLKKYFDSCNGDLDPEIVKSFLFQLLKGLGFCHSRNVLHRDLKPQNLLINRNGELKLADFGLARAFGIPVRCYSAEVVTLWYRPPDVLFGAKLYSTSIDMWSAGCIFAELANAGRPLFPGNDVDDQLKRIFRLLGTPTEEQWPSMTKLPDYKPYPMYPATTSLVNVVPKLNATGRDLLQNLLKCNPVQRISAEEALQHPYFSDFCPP
Sequence of MELK (human) (Q14680 whole entry, looked up): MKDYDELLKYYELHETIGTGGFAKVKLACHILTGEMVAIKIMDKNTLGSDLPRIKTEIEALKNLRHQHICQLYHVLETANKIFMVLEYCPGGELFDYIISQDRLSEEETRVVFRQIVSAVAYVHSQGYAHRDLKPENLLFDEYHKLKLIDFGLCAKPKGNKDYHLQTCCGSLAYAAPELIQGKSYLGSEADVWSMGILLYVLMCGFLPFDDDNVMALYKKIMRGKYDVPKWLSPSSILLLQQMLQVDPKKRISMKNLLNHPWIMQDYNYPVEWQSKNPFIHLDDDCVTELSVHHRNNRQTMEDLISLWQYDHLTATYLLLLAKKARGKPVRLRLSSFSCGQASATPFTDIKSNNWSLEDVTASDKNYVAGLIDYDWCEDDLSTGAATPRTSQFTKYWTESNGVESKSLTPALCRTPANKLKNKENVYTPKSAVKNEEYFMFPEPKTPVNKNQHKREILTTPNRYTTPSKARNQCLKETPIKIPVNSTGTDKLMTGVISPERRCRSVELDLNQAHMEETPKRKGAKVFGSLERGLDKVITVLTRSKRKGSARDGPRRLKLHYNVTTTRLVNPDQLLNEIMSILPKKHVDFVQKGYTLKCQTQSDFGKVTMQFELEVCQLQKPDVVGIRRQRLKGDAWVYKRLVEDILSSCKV
Sequence of DCLK3 (human) (Q9C098 whole entry, looked up): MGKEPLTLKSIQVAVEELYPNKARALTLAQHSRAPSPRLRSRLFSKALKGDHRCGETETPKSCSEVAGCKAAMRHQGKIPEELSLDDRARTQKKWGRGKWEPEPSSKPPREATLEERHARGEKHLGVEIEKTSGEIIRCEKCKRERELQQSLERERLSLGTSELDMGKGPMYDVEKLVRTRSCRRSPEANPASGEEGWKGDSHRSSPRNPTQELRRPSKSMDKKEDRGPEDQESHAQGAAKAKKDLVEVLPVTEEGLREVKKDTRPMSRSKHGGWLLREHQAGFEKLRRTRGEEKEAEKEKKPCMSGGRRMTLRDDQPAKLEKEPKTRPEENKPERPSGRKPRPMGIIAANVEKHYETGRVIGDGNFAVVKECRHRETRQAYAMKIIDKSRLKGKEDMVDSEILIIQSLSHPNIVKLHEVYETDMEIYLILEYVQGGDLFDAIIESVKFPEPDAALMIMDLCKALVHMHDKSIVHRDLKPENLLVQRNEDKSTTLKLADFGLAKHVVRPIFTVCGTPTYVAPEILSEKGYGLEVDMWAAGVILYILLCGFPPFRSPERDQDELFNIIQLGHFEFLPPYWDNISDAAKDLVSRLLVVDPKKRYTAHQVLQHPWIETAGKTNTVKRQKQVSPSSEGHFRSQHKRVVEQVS
Sequence of SRPK3 (human) (Q9UPE1 whole entry, looked up): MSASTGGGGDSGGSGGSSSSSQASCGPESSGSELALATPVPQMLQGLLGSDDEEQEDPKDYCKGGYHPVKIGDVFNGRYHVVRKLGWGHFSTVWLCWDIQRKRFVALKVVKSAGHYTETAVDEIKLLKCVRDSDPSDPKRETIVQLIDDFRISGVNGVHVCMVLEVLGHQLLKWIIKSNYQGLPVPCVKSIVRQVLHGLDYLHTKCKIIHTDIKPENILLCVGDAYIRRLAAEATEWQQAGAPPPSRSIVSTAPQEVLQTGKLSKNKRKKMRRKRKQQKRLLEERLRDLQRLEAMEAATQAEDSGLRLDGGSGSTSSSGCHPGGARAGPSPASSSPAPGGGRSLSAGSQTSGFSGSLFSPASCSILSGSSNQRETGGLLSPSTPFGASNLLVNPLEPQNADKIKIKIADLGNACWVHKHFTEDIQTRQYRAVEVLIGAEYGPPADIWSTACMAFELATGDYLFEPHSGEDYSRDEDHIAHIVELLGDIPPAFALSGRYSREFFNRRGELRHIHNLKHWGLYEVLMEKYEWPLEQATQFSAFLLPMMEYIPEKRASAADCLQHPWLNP
Sequence of PRKD3 (human) (O94806 whole entry, looked up): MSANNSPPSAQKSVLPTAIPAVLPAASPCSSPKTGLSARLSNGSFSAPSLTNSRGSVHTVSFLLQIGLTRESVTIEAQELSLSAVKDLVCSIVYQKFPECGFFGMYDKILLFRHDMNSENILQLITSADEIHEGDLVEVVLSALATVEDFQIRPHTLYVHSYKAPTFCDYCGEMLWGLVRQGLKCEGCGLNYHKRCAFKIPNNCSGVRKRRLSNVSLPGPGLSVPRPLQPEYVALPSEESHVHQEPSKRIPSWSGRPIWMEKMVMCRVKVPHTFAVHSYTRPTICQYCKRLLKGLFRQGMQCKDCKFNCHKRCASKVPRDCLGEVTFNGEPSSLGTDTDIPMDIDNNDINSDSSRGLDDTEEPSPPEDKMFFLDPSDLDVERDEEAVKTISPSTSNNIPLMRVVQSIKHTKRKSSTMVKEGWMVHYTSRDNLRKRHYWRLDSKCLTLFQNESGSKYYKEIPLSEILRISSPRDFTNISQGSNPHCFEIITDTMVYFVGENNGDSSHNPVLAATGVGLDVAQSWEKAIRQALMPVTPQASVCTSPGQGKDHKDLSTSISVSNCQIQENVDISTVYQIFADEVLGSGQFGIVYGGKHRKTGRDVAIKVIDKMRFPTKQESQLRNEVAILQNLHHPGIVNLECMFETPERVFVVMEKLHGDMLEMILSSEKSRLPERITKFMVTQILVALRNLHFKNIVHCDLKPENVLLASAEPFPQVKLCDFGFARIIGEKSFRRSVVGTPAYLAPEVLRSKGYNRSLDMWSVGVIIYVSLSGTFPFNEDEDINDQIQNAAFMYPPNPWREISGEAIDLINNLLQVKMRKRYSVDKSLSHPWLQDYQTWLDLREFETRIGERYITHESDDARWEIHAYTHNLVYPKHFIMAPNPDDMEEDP

COc1ccc(N(C(=O)Oc2cc(C(=O)Nc3cccc(C(F)(F)F)c3)ccc2C)c2ccnc(Nc3ccc(N4CCN(C)CC4)cc3)n2)c(OC)c1
0%: [11]
8%: [15]
2.3%: [14]
2%: [29]
0.9%: [18]
0.4%: [13]
9.8%: [17]
3.4%: [9]
not listed: [30] | [31] | [32] | [33] | [34] | [35] | [36]
100%: all other assays above

CCOc1cc(N2CCC(O)CC2)ccc1Nc1ncc2c(n1)N(C)c1ccccc1C(=O)N2C
31%: [24]
28%: [6]
100%: all other assays above

COc1cc(N2CCC(C(N)=O)CC2)ccc1Nc1nc(N)c(Cl)c(Nc2ccccc2S(=O)(=O)C(C)C)n1
33%: [1]
9%: [24]
30%: [6]
18%: [8]
26%: [10]
0.55%: [9] | [17]
not listed: [30] | [32] | [33] | [34] | [35]
100%: all other assays above

COc1cc(C)c(Sc2cnc(NC(=O)c3ccc(CNC(C)C(C)C)cc3)s2)cc1C(=O)N1CCN(C(C)=O)CC1 (configuration not stated)
29%: [26]
4.2%: [27]
28%: [16]
not listed: [30] | [32] | [33] | [34] | [35]
100%: all other assays above
